The test has as its system SPI1 gene. As to the kind of experiment: qRT-PCR of SPI1 gene expression on adding doxycycline (PU protocol). In kind it is cell-based, human. How it is done:
The expression level at the transcription level can be evaluated through, for example, quantitative reverse transcription PCR (qRT-PCR) using one obtained by reverse-transcribing mRNA prepared from target cells as a template.
In the PU protocol, doxycycline (1 μg/mL) was added to the culture liquid from day 6 to day 18 from the start of culture.
By adding doxycycline, the expression level of the SPI1 gene evaluated through qRT-PCR increased by at least about 50 times compared to a case without doxycycline.
For orientation: In qPCR the cycle at which signal appears reflects the starting amount.

These results are taken from patent US20240309322A1, “[…], METHOD FOR MAN[…], AND MA[…] AND MICROGLIA” (KEIO UNIVERSITY, priority 2021, published 2024).

For `C[C@H]1c2cccc(O)c2C(=O)C2=C(O)[C@]3(O)C(=O)C(C(N)=O)=C(O)[C@@H](N(C)C)[C@@H]3[C@@H](O)[C@@H]21` [doxycycline], the “expression level of the SPI1 gene evaluated through qRT-PCR, increase compared to a case without doxycycline” value (doxycycline 1 μg/mL in culture liquid from day 6 to day 18, SPI1-introduced hiPSC-derived cells) is listed as “at least 50 times”. Moreover, the “expression level of the SPI1 gene with a primer set that selectively amplifies endogenous SPI1 gene” value (regardless of the presence or absence of doxycycline, endogenous SPI1 only) was 1-2 times.
